{"source": "patent US10815219B2", "about": "“2,4-diaminoquinazoline derivatives for inhibiting endoplasmic reticulum (ER) stress” (The Board of Regents of the University of Oklahoma, priority 2017, dated 2020)", "key": {"βTC6 cells": {"tested_on": "βTC6 cells", "assay": "βTC6 cell viability after Tm treatment (CellTiter-Glo)", "format": "cell-based", "details": "Tm 0.25 μg/mL, 72 h, FIG. 3B", "text": "To rule out the possibility of an ATP-specific (rather than viability) effect of the compounds, we used the MTT assay, which measures the activity of NAD(P)H-dependent cellular oxidoreductase enzymes, as an orthogonal method to measure cell viability. […] To confirm that the protective effect of 9c on β cells is not INS-1 cell-specific, another β cell line, βTC6, was used. […] To determine whether the protective effect of 9c on β cells is specific to Tm-induced stress, we used another ER stressor, BFA, which inhibits a key guanine nucleotide exchange factor essential for the transport of proteins from the ER to the Golgi, to treat INS-1 cells.\nINS-1 cells or βTC6 cells were seeded at 3×10^3 cells/well in a 384-well plate and treated with compounds at the indicated concentrations. After 3 d treatment, the medium was aspirated and 20 μL/well of CellTiter-Glo reagent (Promega, WI, USA) was added for the detection of intracellular ATP levels. Cell viability was measured with an EnVision multilabel plate reader (PerkinElmer, MA, USA)."}, "XBP1s mRNA": {"tested_on": "XBP1s mRNA", "assay": "XBP1 splicing (qRT-PCR and RT-PCR) in Tm-treated INS-1 cells", "format": "cell-based, rat", "details": "Tm 0.1 μg/mL, 9c 20 μM", "text": "Next, we investigated the mechanism by which 9c protects β cells against ER stress. In response to ER stress, all three branches of the UPR, IRE1α, PERK and ATF6, are activated to either restore cellular homeostasis/survival or lead to cell death, depending on the severity of ER stress. First, we asked whether 9c affects the activation of IRE1α in β cells under ER stress. Activated IRE1α cleaves X-box binding protein-1 (XBP1) mRNA to generate a spliced form (XBP1s) that is translated into a potent transcription factor which controls expression of UPR genes encoding factors involved in ER protein folding and degradation. We therefore determined the effect of 9c on IRE1α-mediated XBP1 splicing in INS-1 cells in the presence of Tm.\nINS-1 cells were seeded at 4×10^5 cells/well in 6-well plates and treated with compounds for the indicated times. Total RNA was extracted using TRIzol reagent (Invitrogen, Carlsbad, Calif.) according to the manufacturer's protocol, and 2 μg of total RNA was reverse transcribed using a Superscript kit (Invitrogen). Real-time PCR was performed in 96-well format using SYBR Select Master Mix (Applied Biosystems, Foster City, Calif.) with an ABI 7500 PCR system (Applied Biosystems). The primer sequences used are shown in U.S. Ser. No. 62/542,408, Aug. 8, […]."}, "primary human β cells": {"tested_on": "primary human β cells", "assay": "TUNEL staining of primary human islet β cells treated with Tm", "format": "cell-based", "details": "primary human islets, Tm 1 μg/mL, 9c 10 μM, 48 h; Tm alone 15%, DMSO 2.5%", "text": "We determined whether 9c suppresses the apoptosis of primary human β cells induced by Tm treatment as assessed by TUNEL, which detects fragmentation of DNA, a marker of apoptotic cell death. […] Next, we investigated whether 9c restored the Tm-induced insulin secretion defect. […] ER stress induces activation of three branches of UPR (PERK, IRE1α, and ATF6), leading to up-regulation of ATF4, XBP1s, Bip, […], CHOP and eventual activation caspase 3 and cell apoptosis, while diminishing the expression of PDX1, MAFA and insulin genes, leading to β cell dysfunction. Compound 9c protects β cell against ER stress-mediated dysfunction and death by down-regulating ATF4, XBP1s, Bip, GRP94, CHOP, and caspase 3 and up-regulating PDX1, MAFA and insulin genes.\nPrimary human islets were washed with PBS and fixed with 4% paraformaldehyde for 30 min. Fixed cells were then blocked in 5% normal donkey serum for 30 min. Polyclonal guinea pig anti-insulin (A0564, Dako, 1:500 dilution) was used as primary antibody. Donkey Cy3 anti-guinea pig IgG was used as the secondary antibody. TUNEL staining was performed with In Situ Cell Death Detection Kit-Fluorescein (Roche) according to the manufacturer's instructions. DAPI was used for nuclear counter-staining. Images were taken with an Olympus FV1000 confocal microscope."}, "INS-1 cells": {"tested_on": "INS-1 cells", "assay": "Live-cell phase-contrast images of Tm-treated INS-1 cells", "format": "cell-based, rat", "details": "Tm 0.1 μg/mL, 9c 20 μM, 24 h, FIG. 4B", "procedure": "(A) INS-1 cells were treated with or without Tm (0.1 μg/mL) in the presence of 9c (20 μM) or DMSO for the indicated times. Cleaved caspase-3 and PARP were determined by Western blotting. A-Tubulin was used as a loading control. The data shown are representative of 3 independent experiments. (B) INS-1 cells were treated with or without Tm (0.1 μg/mL) in the presence of 9c (20 μM) or DMSO for 24 h, and live-cell phase-contrast images were acquired (magnification 10×).\nTo determine whether the increase in cell viability following treatment with 9c was caused by a suppression of apoptotic cell death, levels of cleaved caspase-3 and cleaved PARP were assessed by Western blotting. Caspase-3, a member of executioner caspases, plays essential roles in initiating apoptotic signaling and executing the final stages of cell death as it is responsible for the proteolytic cleavage of many key proteins, such as the nuclear enzyme poly (ADP-ribose) polymerase (PARP) which is a family of proteins involved in a number of cellular processes involving DNA repair and cell death. […] However, upon severe ER stress, caspase 3 undergoes proteolytic cleavage to produce two subunits that dimerize to form the active enzyme, which in turns cleaves PARP."}}, "data": [{"compound": "COc1ccc(CNc2nc(N3CCCCC3CO)nc3ccccc23)cc1", "note": "(racemic) [Compound 9c, (1-(4-((4-methoxybenzyl)amino)quinazolin-2-yl)piperidin-2-yl)methanol]", "values": [{"measurement": "viability of βTC6 cells (intracellular ATP level)", "setting": "βTC6 cells", "value": "rescued the viability of βTC6 cells in a dose-dependent manner"}, {"measurement": "XBP1s mRNA (qRT-PCR)", "setting": "XBP1s mRNA; FIG. 6A", "value": "suppressed"}, {"measurement": "XBP1s mRNA (RT-PCR, electrophoretic separation of spliced and unspliced forms)", "setting": "XBP1s mRNA; FIG. 6B", "value": "inhibits the Tm-induced generation of XBP1s mRNA"}, {"measurement": "percentage of TUNEL+ insulin+ cells", "setting": "primary human β cells", "value": 3.5, "unit": "%"}, {"measurement": "viable cells observed (phase-contrast)", "setting": "INS-1 cells", "value": "significantly more viable cells"}]}]}
